For this assay, the target named is T1, Muscarinic acetylcholine receptor M4 (Homo sapiens, UniProt P08173).
T1 sequence (P08173 whole entry): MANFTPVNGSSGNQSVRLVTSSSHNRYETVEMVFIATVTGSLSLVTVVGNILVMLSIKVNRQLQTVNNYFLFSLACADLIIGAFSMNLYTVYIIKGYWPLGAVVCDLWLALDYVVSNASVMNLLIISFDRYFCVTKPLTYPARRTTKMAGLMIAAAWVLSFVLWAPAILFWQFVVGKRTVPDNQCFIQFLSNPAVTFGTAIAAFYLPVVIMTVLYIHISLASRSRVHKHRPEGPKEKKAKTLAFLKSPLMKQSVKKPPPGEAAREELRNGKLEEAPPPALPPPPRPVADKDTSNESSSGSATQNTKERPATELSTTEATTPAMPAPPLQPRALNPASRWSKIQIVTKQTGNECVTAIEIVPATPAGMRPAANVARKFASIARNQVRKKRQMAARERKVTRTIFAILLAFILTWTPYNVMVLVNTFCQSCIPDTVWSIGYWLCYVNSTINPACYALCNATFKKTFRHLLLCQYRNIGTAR
Kind of assay: Antagonist activity at recombinant human M4 receptor expressed in CHO cells co-expressing Gqi5 by calcium mobilization assay.

SMILES strings stand for the structures.

In BindingDB's records for doi:10.1016/j.bmcl.2017.04.009 (Vanderbilt University School of Medicine, 2017) one finds IC50 data, which are given here for one molecule.

One may read the IC50 as the concentration that gives 50% inhibition. For `O=C(C1CCN(c2cc(Oc3ccc(Cl)cc3F)ncn2)CC1)N1CCc2ccccc2C1`, the IC50 turned out to be 117 nM.
